Measured values: ChEMBL document CHEMBL1201862, “PubChem BioAssay data set” (2004)
Active and inactive are the calls of the source.

Legend:
[1] = target: Serine/threonine-protein phosphatase PP1-alpha catalytic subunit (Homo sapiens, UniProt P62136); experiment: inhibition of protein phosphatase 1 activity – biochemical, fluorescence, dose response (AID 2394)
[2] = target: T1, Sentrin-specific protease 6 (Homo sapiens, UniProt Q9GZR1); format: functional;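 also: Luminescence-based dose-response confirmatory assay of SENP6 inhibition, following up an ultra-high-throughput screen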
T1 sequence (Q9GZR1 whole entry): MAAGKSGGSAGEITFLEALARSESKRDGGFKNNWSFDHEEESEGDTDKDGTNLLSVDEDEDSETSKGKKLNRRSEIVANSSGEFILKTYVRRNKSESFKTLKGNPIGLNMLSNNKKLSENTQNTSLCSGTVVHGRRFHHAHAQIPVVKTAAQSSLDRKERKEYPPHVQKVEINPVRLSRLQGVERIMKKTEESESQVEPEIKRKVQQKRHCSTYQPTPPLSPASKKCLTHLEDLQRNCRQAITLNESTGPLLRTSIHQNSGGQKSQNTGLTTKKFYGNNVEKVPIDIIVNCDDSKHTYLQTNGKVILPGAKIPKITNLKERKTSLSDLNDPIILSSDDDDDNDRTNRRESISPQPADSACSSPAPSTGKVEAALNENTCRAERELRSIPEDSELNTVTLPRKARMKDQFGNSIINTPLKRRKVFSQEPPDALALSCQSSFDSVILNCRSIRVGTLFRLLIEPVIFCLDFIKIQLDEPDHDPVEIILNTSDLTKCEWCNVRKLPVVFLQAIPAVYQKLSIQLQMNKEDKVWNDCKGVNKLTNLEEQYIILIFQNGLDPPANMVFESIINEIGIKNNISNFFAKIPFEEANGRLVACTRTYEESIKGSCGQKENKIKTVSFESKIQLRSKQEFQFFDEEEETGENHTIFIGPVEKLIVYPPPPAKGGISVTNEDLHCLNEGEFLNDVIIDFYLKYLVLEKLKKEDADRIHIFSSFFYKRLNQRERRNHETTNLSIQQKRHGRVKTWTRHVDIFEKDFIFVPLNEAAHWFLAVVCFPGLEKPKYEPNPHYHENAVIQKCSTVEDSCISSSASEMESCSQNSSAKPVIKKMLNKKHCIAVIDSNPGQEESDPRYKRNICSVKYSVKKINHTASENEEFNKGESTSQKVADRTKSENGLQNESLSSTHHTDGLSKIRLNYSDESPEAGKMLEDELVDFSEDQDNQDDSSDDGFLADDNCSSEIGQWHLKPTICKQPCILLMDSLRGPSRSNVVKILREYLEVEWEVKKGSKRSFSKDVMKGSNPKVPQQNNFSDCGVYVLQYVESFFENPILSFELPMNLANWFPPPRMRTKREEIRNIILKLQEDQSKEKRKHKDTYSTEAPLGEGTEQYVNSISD

[3] = target: Intestinal-type alkaline phosphatase (Mus musculus, UniProt P24822); experiment: PubChem AID 488785; format: functional
[4] = target: T2, Alkaline phosphatase, tissue-nonspecific isozyme (Homo sapiens, UniProt P05186); experiment: TNAP enzyme inhibition by screening hits, dose response, selectivity assay for mouse IAP inhibitor project, biochemical, human TNAP, uHTS hits (AID 488906); format: functional
T2 sequence (P05186 whole entry): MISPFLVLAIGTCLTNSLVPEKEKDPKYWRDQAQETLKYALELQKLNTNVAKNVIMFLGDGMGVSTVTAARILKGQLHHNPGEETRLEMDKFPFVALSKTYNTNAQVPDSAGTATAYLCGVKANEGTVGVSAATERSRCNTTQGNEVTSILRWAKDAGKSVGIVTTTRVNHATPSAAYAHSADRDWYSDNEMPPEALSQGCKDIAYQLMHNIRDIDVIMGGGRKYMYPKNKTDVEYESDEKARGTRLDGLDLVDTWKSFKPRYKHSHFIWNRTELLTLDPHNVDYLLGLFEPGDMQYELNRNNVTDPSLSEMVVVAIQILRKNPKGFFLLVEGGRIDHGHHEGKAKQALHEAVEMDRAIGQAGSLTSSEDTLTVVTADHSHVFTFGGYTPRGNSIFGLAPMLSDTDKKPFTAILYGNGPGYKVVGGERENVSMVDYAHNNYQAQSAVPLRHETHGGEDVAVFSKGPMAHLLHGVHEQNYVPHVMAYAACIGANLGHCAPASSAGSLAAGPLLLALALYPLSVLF

[5] = target: T3, Protein RecA (Mycobacterium tuberculosis, UniProt P9WHJ3); experiment: Fluorescence Cell-Free Homogeneous Dose Retest to Identify Inhibitors of RecA-Intein Splicing Activity. [Related pubchem assays (depositor defined):AID2097, AID2223, AID489010, AID492950]; format: functional
T3 sequence (P9WHJ3 whole entry): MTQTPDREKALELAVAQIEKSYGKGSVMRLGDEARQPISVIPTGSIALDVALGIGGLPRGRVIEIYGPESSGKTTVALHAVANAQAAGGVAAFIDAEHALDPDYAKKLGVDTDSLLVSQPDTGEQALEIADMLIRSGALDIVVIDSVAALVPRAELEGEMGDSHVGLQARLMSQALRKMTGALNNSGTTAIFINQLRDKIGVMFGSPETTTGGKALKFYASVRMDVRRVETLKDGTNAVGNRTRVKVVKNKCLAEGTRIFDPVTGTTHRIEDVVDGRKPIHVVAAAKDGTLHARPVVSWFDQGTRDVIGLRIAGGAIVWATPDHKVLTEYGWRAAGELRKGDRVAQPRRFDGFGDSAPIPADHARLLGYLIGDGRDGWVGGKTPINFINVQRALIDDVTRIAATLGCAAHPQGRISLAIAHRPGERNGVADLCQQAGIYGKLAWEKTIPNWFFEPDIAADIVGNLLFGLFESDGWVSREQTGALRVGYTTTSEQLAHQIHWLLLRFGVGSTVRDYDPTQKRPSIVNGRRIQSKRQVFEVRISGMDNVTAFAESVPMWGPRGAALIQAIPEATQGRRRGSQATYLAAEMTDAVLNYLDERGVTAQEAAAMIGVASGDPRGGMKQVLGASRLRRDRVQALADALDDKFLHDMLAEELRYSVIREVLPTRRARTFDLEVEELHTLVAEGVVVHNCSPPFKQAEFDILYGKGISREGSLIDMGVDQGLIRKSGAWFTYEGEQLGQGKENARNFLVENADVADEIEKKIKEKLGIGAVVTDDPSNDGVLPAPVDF

[6] = luciferase reporter signal suppression in cells – H4 neuroglioma cells, luminescence, dose response (AID 1990); format: functional, cell-based
[7] = system: BJ; experiment: BJ-TERT fibroblast viability loss – cell-based, RAS-independent, luminescence, dose response (AID 1933); format: functional; conditions: Homo sapiens
[8] = system: BJ; experiment: cells; format: functional, cell-based; conditions: Homo sapiens
[9] = CellTiter-Glo luminescence survival assay, SW480 colon tumor line, concentration-response curve, half-maximal inhibitory concentration (AID 1117338); format: functional

Serine/threonine-protein phosphatase PP1-alpha catalytic subunit, sequence (P62136 whole entry): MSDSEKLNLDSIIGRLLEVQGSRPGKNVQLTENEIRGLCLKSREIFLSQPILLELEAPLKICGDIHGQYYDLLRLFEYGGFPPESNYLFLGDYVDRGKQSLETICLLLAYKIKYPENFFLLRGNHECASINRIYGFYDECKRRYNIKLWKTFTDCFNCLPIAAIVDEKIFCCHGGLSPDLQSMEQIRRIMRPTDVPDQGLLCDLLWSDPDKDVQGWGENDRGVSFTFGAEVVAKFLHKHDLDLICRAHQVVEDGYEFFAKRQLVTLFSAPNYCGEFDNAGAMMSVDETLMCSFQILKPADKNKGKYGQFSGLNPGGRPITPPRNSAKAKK
Intestinal-type alkaline phosphatase, sequence (P24822 whole entry): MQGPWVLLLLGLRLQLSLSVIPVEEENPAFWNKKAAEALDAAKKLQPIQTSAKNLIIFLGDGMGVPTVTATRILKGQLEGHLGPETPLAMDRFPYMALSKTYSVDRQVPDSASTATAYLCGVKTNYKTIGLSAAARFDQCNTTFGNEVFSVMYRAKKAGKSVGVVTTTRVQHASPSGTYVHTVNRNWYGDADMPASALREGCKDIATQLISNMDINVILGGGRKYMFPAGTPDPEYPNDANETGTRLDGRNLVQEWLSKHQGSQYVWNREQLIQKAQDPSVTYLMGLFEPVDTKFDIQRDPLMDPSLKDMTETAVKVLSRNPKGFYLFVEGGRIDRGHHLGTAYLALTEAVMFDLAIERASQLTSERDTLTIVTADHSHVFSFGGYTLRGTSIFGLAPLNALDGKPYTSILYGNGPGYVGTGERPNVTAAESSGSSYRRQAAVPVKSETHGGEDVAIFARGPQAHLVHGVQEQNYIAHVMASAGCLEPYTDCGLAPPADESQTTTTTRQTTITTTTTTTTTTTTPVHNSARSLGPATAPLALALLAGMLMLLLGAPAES

CCCOc1cc2c(C#N)c(N3CCCC3)nc(N)c2c(N)n1
IC50 [1]: > 67 µM (not active) | IC50 [2]: 3.96 µM (active)

Oc1ccc(/C=N/Nc2cc(N3CCCC3)nc(N3CCCC3)n2)cc1O
IC50 [3]: 1.51 µM (active) | IC50 [4]: > 100 µM (inactive)

Cc1cc2nc3ccc(N(C)C)cc3[s+]c2cc1N [TOLONIUM CHLORIDE]
EC50 [5]: 28 µM (active) | EC50 [6]: 8.36 µM (active) | EC50 [7]: 5.74 µM (active) | EC50 [8]: 7.39 µM (active) | IC50 [9]: 1.4 µM (active)
